Measured values reported in ChEMBL document CHEMBL4651402, “Screening of ~5500 FDA-approved drugs and clinical candidates for anti-SARS-CoV-2 activity” (2021).

Test system: SARS-CoV-2
Test: microbe, parasite or virus in culture
Conditions: Severe acute respiratory syndrome coronavirus 2, Vero C1008, 48 h

Structure (SMILES) | IC50 | IC50 (read-out: pIC50 (converted))
COCCCC/C(=N\OCCN)c1ccc(C(F)(F)F)cc1 [FLUVOXAMINE] | > 20 µM | > 20 µM
CNC(=O)N1CC(Oc2cccc(C(F)(F)F)c2)C1 [FLUZINAMIDE] | > 20 µM | > 20 µM
Nc1nc(=O)c2nc(CNc3ccc(C(=O)N[C@@H](CCC(=O)O)C(=O)O)cc3)cnc2[nH]1 [FOLIC ACID] | > 20 µM | > 20 µM
Cc1cn[nH]c1 [FOMEPIZOLE] | > 20 µM | > 20 µM
CN(CC(=O)N1CCOCC1)Cc1c(Cl)cccc1NC(=O)c1ccccc1 [FOMINOBEN] | > 20 µM | > 20 µM
c1ccc(OCc2ccc(CCCN3CCOCC3)cc2)cc1 [FOMOCAINE] | > 20 µM | > 20 µM
CC(CN1c2ccccc2Sc2ccc(S(=O)(=O)N(C)C)cc21)N(C)C (stereo not given) [FONAZINE] | > 20 µM | > 20 µM
COc1cc2c(Oc3ccc(NC(=O)C4(C(=O)Nc5ccc(F)cc5)CC4)cc3F)ccnc2cc1OCCCN1CCOCC1 [FORETINIB] | > 20 µM | > 20 µM
C[C@]12CCC(=O)C(O)=C1CC[C@@H]1[C@@H]2CC[C@]2(C)C(=O)CC[C@@H]12 [FORMESTANE] | > 20 µM | > 20 µM
COc1ccc(-c2coc3cc(O)ccc3c2=O)cc1 [FORMONONETIN] | > 20 µM | > 20 µM
O=c1[nH]cnc2c([C@@H]3N[C@H](CO)[C@@H](O)[C@H]3O)c[nH]c12 [FORODESINE] | > 20 µM | > 20 µM
CC(C)CN(C[C@@H](OP(=O)(O)O)[C@H](Cc1ccccc1)NC(=O)O[C@H]1CCOC1)S(=O)(=O)c1ccc(N)cc1 [FOSAMPRENAVIR] | > 20 µM | > 20 µM
O=C(O)P(=O)(O)O [FOSCARNET] | > 20 µM | > 20 µM
Cc1ncccc1NC(=O)c1ccc2c(c1)CC[C@@H]1C[C@@](OP(=O)(O)O)(C(F)(F)F)CC[C@@]21Cc1ccccc1 [FOSDAGROCORAT] | > 20 µM | > 20 µM
C[C@@H]1O[C@@H]1P(=O)(O)O [FOSFOMYCIN] | > 20 µM | > 20 µM
O=C(O)CP(=O)(O)O [FOSFONET] | > 20 µM | > 20 µM
O=C(O)c1ccccc1OP(=O)(O)O [FOSFOSAL] | > 20 µM | > 20 µM
O=C(O)[C@@H]1C[C@@H](C2CCCCC2)CN1C(=O)CP(=O)(O)CCCCc1ccccc1 [FOSINOPRILAT] | > 20 µM | > 20 µM
COc1cc(Nc2ncc(F)c(Nc3ccc4c(n3)N(COP(=O)(O)O)C(=O)C(C)(C)O4)n2)cc(OC)c1OC [FOSTAMATINIB] | > 20 µM | > 20 µM
CCOP(=O)(Cc1ccc(-c2nc3ccccc3s2)cc1)OCC [FOSTEDIL] | > 20 µM | > 20 µM
COc1cnc(-n2cnc(C)n2)c2c1c(C(=O)C(=O)N1CCN(C(=O)c3ccccc3)CC1)cn2COP(=O)(O)O [FOSTEMSAVIR] | > 20 µM | > 20 µM
CCCc1c(OCC(O)COc2ccc3c(=O)cc(C(=O)O)oc3c2CCC)ccc(C(C)=O)c1O (stereo not given) [FPL-55712] | > 20 µM | > 20 µM

Structure (SMILES) | IC50 | IC50 (read-out: pIC50 (converted))
NC[C@@H]1O[C@H](O[C@H]2[C@@H](O)[C@H](O[C@@H]3[C@@H](O)[C@H](N)C[C@H](N)[C@H]3O[C@H]3O[C@H](CN)[C@@H](O)[C@H](O)[C@H]3N)O[C@@H]2CO)[C@H](N)[C@@H](O)[C@@H]1O [FRAMYCETIN] | > 20 µM | > 20 µM
O=C(CO)[C@@H](O)[C@H](O)[C@H](O)CO [FRUCTOSE] | > 20 µM | > 20 µM
Cc1cccc(C)c1NC(=O)c1ccccc1C(=O)O [FTAXILIDE] | > 20 µM | > 20 µM
N[C@@H](CSCCCO)C(=O)O [FUDOSTEINE] | > 20 µM | > 20 µM
C[C@]12CC[C@@H]3c4ccc(O)cc4C[C@@H](CCCCCCCCC[S+]([O-])CCCC(F)(F)C(F)(F)F)[C@H]3[C@@H]1CC[C@@H]2O (stereo not given in full) [FULVESTRANT] | > 20 µM | > 20 µM
O=C1OC(CN2CCOCC2)CN1/N=C/c1ccc([N+](=O)[O-])o1 (stereo not given) [FURALTADONE] | > 20 µM | > 20 µM
CC(C(=O)O)c1cccc2c(-c3ccccc3)coc12 (stereo not given) [FURAPROFEN] | > 20 µM | > 20 µM
O=C(O)c1cc2cc(Cc3cccnc3)ccc2o1 [FUREGRELATE] | > 20 µM | > 20 µM
NS(=O)(=O)c1cc(C(=O)O)c(NCc2ccco2)cc1Cl [FUROSEMIDE] | > 20 µM | > 20 µM
CC(=O)O[C@H]1C[C@@]2(C)[C@@H](C[C@@H](O)[C@H]3[C@@]4(C)CC[C@@H](O)[C@@H](C)[C@@H]4CC[C@@]32C)/C1=C(\CCC=C(C)C)C(=O)O [FUSIDIC ACID] | > 20 µM | > 20 µM
C=CC(=O)N1CC[C@H](n2nc(C#Cc3cc(OC)cc(OC)c3)c3c(N)ncnc32)C1 [FUTIBATINIB] | > 20 µM | > 20 µM
NCC1(CC(=O)O)CCCCC1 [GABAPENTIN] | > 20 µM | > 20 µM
COc1ccc(-c2ccc(=N)n(CCCC(=O)O)n2)cc1 [GABAZINE] | > 20 µM | > 20 µM
CCOC(=O)c1ccc(OC(=O)CCCCCNC(=N)N)cc1 [GABEXATE] | > 20 µM | > 20 µM
Oc1noc2c1CCNC2 [GABOXADOL] | > 20 µM | > 20 µM
COc1ccc2c3c1O[C@H]1C[C@@H](O)C=C[C@@]31CCN(C)C2 [GALANTAMINE] | > 20 µM | > 20 µM
C[C@]12CC[C@H](O)CC1=CC[C@@H]1[C@@H]2CC[C@]2(C)C(n3cnc4ccccc43)=CC[C@@H]12 [GALETERONE] | > 20 µM | > 20 µM
O=C(O)c1cc(O)c(O)c(O)c1 [GALLIC ACID] | > 20 µM | > 20 µM
O=C(O[C@@H]1Cc2c(O)cc(O)cc2O[C@H]1c1cc(O)c(O)c(O)c1)c1cc(O)c(O)c(O)c1 [GALLOCATECHIN GALLATE] | > 20 µM | > 20 µM
COc1ccc(CCN(C)CCCC(C#N)(c2cc(OC)c(OC)c(OC)c2)C(C)C)cc1OC (stereo not given) [GALLOPAMIL] | > 20 µM | > 20 µM
Cc1cccc(-c2nn3c(c2-c2ccnc4ccc(C(N)=O)cc24)CCC3)n1 [GALUNISERTIB] | > 20 µM | > 20 µM
CC(C)=CCC[C@]1(C)C=Cc2c(O)c3c(c(CC=C(C)C)c2O1)O[C@]12C(=C[C@@H]4C[C@H]1C(C)(C)O[C@@]2(C/C=C(/C)C(=O)O)C4=O)C3=O [GAMBOGIC ACID] | > 20 µM | > 20 µM

Structure (SMILES) | IC50 | IC50 (read-out: pIC50 (converted))
CN(C)CCC(c1ccccc1)C1CCCCC1 (stereo not given) [GAMFEXINE] | > 20 µM | > 20 µM
NCC(O)CC(=O)O (stereo not drawn) [GAMMA-AMINO-BETA-HYDROXYBUTYRIC ACID] | > 20 µM | > 20 µM
OC[C@H]1O[C@@H]2O[C@H]3[C@H](O)[C@@H](O)[C@@H](O[C@H]4[C@H](O)[C@@H](O)[C@@H](O[C@H]5[C@H](O)[C@@H](O)[C@@H](O[C@H]6[C@H](O)[C@@H](O)[C@@H](O[C@H]7[C@H](O)[C@@H](O)[C@@H](O[C@H]8[C@H](O)[C@@H](O)[C@@H](O[C@H]9[C@H](O)[C@@H](O)[C@@H](O[C@H]1[C@H](O)[C@H]2O)O[C@@H]9CO)O[C@@H]8CO)O[C@@H]7CO)O[C@@H]6CO)O[C@@H]5CO)O[C@@H]4CO)O[C@@H]3CO [GAMMA-CYCLODEXTRIN] | > 20 µM | > 20 µM
Nc1nc2c(ncn2COC(CO)CO)c(=O)[nH]1 [GANCICLOVIR] | > 20 µM | > 20 µM
CC(C)c1cc(-c2n[nH]c(=O)n2-c2ccc3c(ccn3C)c2)c(O)cc1O [GANETESPIB] | > 20 µM | > 20 µM
COc1c(N2CCNC(C)C2)c(F)cc2c(=O)c(C(=O)O)cn(C3CC3)c12 (stereo not given) [GATIFLOXACIN] | > 20 µM | > 20 µM
CC(=O)O[C@@H]1C[C@H]2C(C)(C)C(=O)C=C[C@]2(C)[C@H]2CC[C@@]3(C)[C@H](c4ccoc4)OC(=O)[C@H]4O[C@]43[C@@]21C [GEDUNIN] | > 20 µM | > 20 µM
C=C[C@]12CN(C)[C@@H]3[C@H]4CO[C@H](C[C@H]41)[C@]1(C(=O)Nc4ccccc41)[C@@H]32 [GELSEMINE] | > 20 µM | > 20 µM
CC(C)(CO)CCCCCCC(C)(C)CO [GEMCADIOL] | > 20 µM | > 20 µM
Nc1ccn([C@@H]2O[C@H](CO)[C@@H](O)C2(F)F)c(=O)n1 [GEMCITABINE] | > 20 µM | > 20 µM
Cc1ccc(C)c(OCCCC(C)(C)C(=O)O)c1 [GEMFIBROZIL] | > 20 µM | > 20 µM
O=c1c(-c2ccc(O)cc2)coc2cc(O)cc(O)c12 [GENISTEIN] | > 20 µM | > 20 µM
CN[C@@H]1[C@@H](O)[C@@H](O[C@@H]2[C@@H](O)[C@H](O[C@H]3O[C@H]([C@@H](C)NC)CC[C@H]3N)[C@@H](N)C[C@H]2N)OC[C@]1(C)O [GENTAMICIN C1] | > 20 µM | > 20 µM
CN(C)c1ccc(C(=C2C=CC(=[N+](C)C)C=C2)c2ccc(N(C)C)cc2)cc1 [GENTIAN VIOLET] | > 20 µM | > 20 µM
O=C(O)c1cc(O)ccc1O [GENTISIC ACID] | > 20 µM | > 20 µM
C[C@H](N)Cc1cccc(O)c1 [GEPEFRINE] | > 20 µM | > 20 µM
CC1(C)CC(=O)N(CCCCN2CCN(c3ncccn3)CC2)C(=O)C1 [GEPIRONE] | > 20 µM | > 20 µM
C#C[C@]1(O)C=C[C@H]2[C@@H]3CCC4=CC(=O)CC[C@@H]4[C@H]3CC[C@@]21CC [GESTODENE] | > 20 µM | > 20 µM
C#C[C@]1(O)CC[C@H]2[C@@H]3CCC4=CC(=O)CCC4=C3C=C[C@@]21CC [GESTRINONE] | > 20 µM | > 20 µM
Fc1ccc2[nH]c3c(c2c1)CN(CCCc1cccnc1)CC3 [GEVOTROLINE] | > 20 µM | > 20 µM
C=C1C[C@]23C[C@@]1(O)CC[C@H]2[C@@]12C=C[C@H](O)[C@](C)(C(=O)O1)[C@H]2[C@@H]3C(=O)O [GIBBERELLIN GA3] | > 20 µM | > 20 µM
